The text below walks through data of patent publication US5679677A, “Heterocyclic carbamates, process for their preparation and medicaments” (Luitpold Pharma GmbH, priority 1993, dated 1997).

For data set [1], the target named is T1, elastase from human granulocytes (Homo sapiens, UniProt P08246).
T1 construct: from tissue; host or cells: human granulocytes
T1 sequence (P08246 30-247 limits assumed): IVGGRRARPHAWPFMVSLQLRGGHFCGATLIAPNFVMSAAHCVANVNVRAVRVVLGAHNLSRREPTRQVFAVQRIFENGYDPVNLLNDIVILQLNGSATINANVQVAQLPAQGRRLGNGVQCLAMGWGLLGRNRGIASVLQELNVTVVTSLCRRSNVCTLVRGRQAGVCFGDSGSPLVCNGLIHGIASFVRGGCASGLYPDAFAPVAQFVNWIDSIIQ
Nature of the data set: Inhibition of granulocyte elastase (enzyme inhibition test, substrate L-pyroglutaminyl-L-prolyl-L-valine-p-nitroanilide). It is filed as biochemical. To be noted: substrate L-pyroglutaminyl-L-prolyl-L-valine-p-nitro-anilide, read-out: IC50 (concentration for 50% inhibition) of granulocytic elastase. On the procedure: The inhibition of granulocyte elastase was determined in an enzyme inhibition test using elastase from human granulocytes. In this test the specific substrate L-pyroglutaminyl-[…]-nitro-anilide was used ([…] et al., Scand. J. Lab. Invest. 43 (1983) 427-432). The IC50 values (concentrations for 50% inhibition) are shown in Table 1 for exemplary compounds according to the invention.

Data set [2] can be described thus: Hygroscopicity of isolated solid. To be noted: hydrochloride. It is filed as physicochemical.
The nature of data set [3]: Antithrombotic action in the tail-bleeding time model on the rat (modified test according to Diness). In kind it is in vivo. Particulars: groups of 10, oral administration, 200 mg/kg. As for the experimental part:
The compound from Example 14 at a dose of 200 mg/kg thus prolonged the bleeding time by 103%.

“Also recorded” adds a separate entry of the source. Counter-ions that a name gives are not always drawn.

For the compound `Cc1nn(C(=O)Oc2ccccc2)c(=O)c2ccccc12` [Example 6], in data set [1], the IC50 worked out at 0.75 µM. Same read-out and setting: with `CCOC(=O)Oc1cccc2c(=O)n(C(=O)OCC)ccc12` [Example 15, Ethyl 5-ethoxycarbonyloxyisoquinolin-1(2 H)-one-N-carboxylate] the figure was 5.4 µM. For `CN1CCCC(OC(=O)n2ccc3ccccc3c2=O)C1` (stereo not drawn) [Example 19, N'-Methylpiperidin-3-yl isoquinolin-1(2 H)-one-N-carboxylate hydrochloride], in data set [2], the “hygroscopicity / behaviour in air (in words)” value is “very hygroscopic; also recorded: deliquesces in air”.

`CCOC(=O)n1ccc2ccccc2c1=O` [Example 2]: the IC50 in data set [1] stood at 0.3 µM. As for `O=C(Oc1ccccc1)n1c(SCc2ccccc2)nc2ccccc2c1=O` [Example 13], the IC50 in data set [1] came to 4 µM.

For the compound `O=C(Oc1ccccc1)n1ncc2ccccc2c1=O` [Example 1, Phenyl 1(2 H)-phthalazinone-N-carboxylate], the IC50 in data set [1] was found to be 0.2 µM.

Turning to `COC(=O)c1ccc(OC(=O)n2nnc3ccccc3c2=O)cc1` [Example 4], the IC50 in data set [1] turned out to be 8.3 µM. Take `CCOC(=O)n1c(SCc2ccccc2)nc2ccccc2c1=O` [Example 14]: the “prolongation of the bleeding time” value in data set [3] was 103%. Moreover, the IC50 in data set [1] came to 6 µM.
